Results: US20170152490A9, “USE OF ACTIVIN RECEPTOR-LIKE KINASE 1 (ALK-1) ANTAGONISTS IN THE TREATMENT OF CANCER” (Acceleron Pharma, Inc., priority 2014, published 2017)
“Also recorded” adds a separate entry of the source.

Columns and labels:
[1] = system: RPMI2650 xenograft (Nasal Septum Carcinoma cells, ATCC# CCL-30); test: RPMI2650 head and neck carcinoma xenograft, tumor growth; format: in vivo, Mus musculus (Hsd: Athymic Nude-Foxn1nu); conditions: for TGI (tumor growth inhibition): day 30, after 3 weeks of dosing; for TGI (tumor growth inhibition) / GMDV (geo mean of final tumor volume/geo mean of initial tumor volume): ACE-041 10 mg/kg i.p. tiw, cisplatin 5 mg/kg i.v. qw; for GMDV (geo mean of final tumor volume/geo mean of initial tumor volume): day 30
Procedure: Tumor implantation. RPMI2650 (ATCC #CCL-30) were grown in Eagle's Minimum Essential Medium (ATCC Cat. No 30-2003), supplemented with fetal bovine serum (Gibco, Cat. No 26140) to a final concentration of 10%. Cell were harvested by mild trypsin digestion, washed in SFM and resuspended at a concentration of 50×10E6/ml in SFM. 0.1 ml (5×10E6 cells) of the cell suspension was injected subcutaneously in the right flank of a nude mouse.
Tumor measurement. Tumor size was measured manually using digital calipers. Tumor volume was calculated using the formula for a modified ellipse ((Length*Width2)/2).
Data Analysis. […] TGI was calculated according to the formula:
TGI=(GMDV(C)−GMDV(T))*100/(GMDV(C)−1), where GMDV=Geomean(final volumes)/Geomean(intitial volumes)

[2] = cited from earlier work; for typical maximum tolerated dose: body surface
[3] = Animal body weight / tolerability in the RPMI2650 xenograft study; conditions: for Average changes in body weight: ACE-041 10 mg/kg i.p. tiw
Procedure: Nasal Septum Carcinoma cells (RPMI2650, ATCC# CCL-30) were injected subcutaneously in the right flank (5×10E6 in 0.1 ml of SFM) of 8-week old female mice. Nine days following implantation animals were randomized into 4 groups based on tumor volume. Animal dosing and tumor measurement was done three times a week.
Data Analysis. Graphing and statistical analysis of the tumor volume and body weight data was done using GraphPad Prism 5 software (GraphPad Software Inc., La Jolla, Calif.). Unpaired two-tailed t-test (with or w/o Welch correction) was used to determine statistical significance.

[4] = system: recurrent or metastatic squamous cell carcinoma of the head and neck (SCCHN); test: Phase 2 study of Dalantercept in recurrent or metastatic SCCHN; format: in vivo, human
Procedure: Methods: 46 patients were enrolled and received Dalantercept SC Q3W at 80 mg (n=2), 0.6 mg/kg (n=13), and 1.2 mg/kg (n=31) until disease progression or unacceptable toxicity. Archived and optional biopsies and serum were collected for PD (pharmacodynamic) studies . The primary endpoint was response rate (RR) per RECIST 1.1 and secondary endpoints included progression free survival and overall survival. Key eligibility: recurrent or metastatic SCCHN of mucosal origin, >1 one prior platinum regimen, ECOG performance status ≦1, and no prior anti-angiogenic therapy.

[5] = system: advanced, refractory solid tumors including SCCHN; test: Phase 1 study of dalantercept in patients with advanced, refractory solid tumors; format: in vivo, human; conditions: patients incl. SCCHN
[6] = Day 9 (randomization, start of dosing), s.c. RPMI2650 xenograft, nude mice
[7] = Day 30, ACE-041 10 mg/kg i.p. tiw x3, cisplatin 5 mg/kg i.v. qw x3
[8] = day 30, cisplatin 5 mg/kg i.v. qw

Compound | Tumor volume (geo mean) [1, 6] [mm3] | Tumor volume (geo mean) [1, 7] [mm3] | TGI (tumor growth inhibition) [1] [%] | GMDV (geo mean of final tumor volume/geo mean of initial tumor volume) [1] | typical maximum tolerated dose [2] | maximum tolerated dose ([2]; typical, most patients) | Average changes in body weight [3, 8] [%] | cumulative body weight loss on average [3, 8] [%] | body weight loss of some animals (as much as) ([3]; individual animals, triggered termination of the study) [%] | proportion of patients with stable disease (SD) >3 cycles ([4]; 0.6 mg/kg SC Q3W (n=3)) [%] | proportion of patients with stable disease (SD) >3 cycles ([4]; 1.2 mg/kg SC Q3W (n=10)) [%] | patients achieving a partial response (PR), RECIST 1.1 ([4]; 1 patient at 1.2 mg/kg SC Q3W, 41 evaluable patients) [%] | frequency of grade >3 related AEs ([4]; 46 patients enrolled, SC Q3W) [%] | most common drug-related adverse events (in words) ([4]; grade 1-2) | clinical activity (in words) ([5]; listed as Dalantercept) | clinical activity (in words) ([5]; listed as dalantercept) | toxicity as monitored by changes in animal body weight (in words) ([3]; dosing period to day 30)
N.N.[Cl][Pt][Cl] [Cisplatin, cisplatin] | 185.8 | 1001 | 35 | 5.4 | 60-100 mg/m^2 | about 5 mg/kg/day | −12.9 | ~13 | ≤ 20 | – | – | – | – | – | – | – | –
ACE-041: Soluble ALK1-IgG1 fusion protein (ALK1 extracellular domain-Fc), see SEQ ID NO: 3; ligand trap to BMP 9 and 10 | 181.4 | 1024 | 32 | 5.6 | – | – | 9.1 | – | – | 23 | 37 | 2.4 | 13 | anemia, fatigue, peripheral edema, headache, hyponatremia, and pleural effusion | demonstrated activity in a subset of patients with SCCHN | signs of clinical activity; also recorded: stable disease | did not show any sign of acute toxicity
N.N.N.N.N.N.NCCCCCCN.NCCCCCCN.[Cl-].[Cl-].[Pt+2].[Pt+2].[Pt+2] [Triplatin] | – | – | – | – | 0.9-1.1 mg/m^2 | – | – | – | – | – | – | – | – | – | – | – | –
N.N.O=C([O-])C1(C(=O)[O-])CCC1.[Pt+2] [Carboplatin] | – | – | – | – | 600-800 mg/m^2 | – | – | – | – | – | – | – | – | – | – | – | –
